Source: ChEMBL document CHEMBL5523741, “Development of an Orally Bioavailable LCK PROTAC Degrader as a Potential Therapeutic Approach to T-Cell Acute Lymphoblastic Leukemia” (J Med Chem, 2024)
Activity calls are given as the source filed them. The calls are words filed in the database; no cut-off is given here.

Columns and labels:
[1] = target: T1, Protein cereblon/Tyrosine-protein kinase Lck (Homo sapiens, UniProt P06239+Q96SW2); assay: PROTAC activity at HiBit-tagged LCK/CRBN in human KOPT-K1 cells assessed as induction of LCK degradation incubated for 6 hrs by Nano-Glo HiBiT assay; format: cell-based
Target sequence in this assay (P06239 whole entry): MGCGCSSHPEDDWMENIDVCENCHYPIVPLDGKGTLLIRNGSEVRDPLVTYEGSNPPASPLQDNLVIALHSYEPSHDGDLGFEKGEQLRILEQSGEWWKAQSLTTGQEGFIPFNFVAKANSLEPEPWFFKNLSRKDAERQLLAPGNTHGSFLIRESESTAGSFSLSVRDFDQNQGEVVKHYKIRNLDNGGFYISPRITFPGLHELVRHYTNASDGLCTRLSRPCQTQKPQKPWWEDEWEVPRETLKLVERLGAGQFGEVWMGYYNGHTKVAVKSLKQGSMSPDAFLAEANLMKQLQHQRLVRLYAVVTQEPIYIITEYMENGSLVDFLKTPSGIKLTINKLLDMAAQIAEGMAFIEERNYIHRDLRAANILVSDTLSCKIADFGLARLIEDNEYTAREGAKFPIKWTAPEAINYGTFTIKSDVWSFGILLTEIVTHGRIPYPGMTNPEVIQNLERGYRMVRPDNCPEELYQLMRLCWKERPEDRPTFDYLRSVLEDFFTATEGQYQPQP
Target sequence in this assay (Q96SW2 whole entry): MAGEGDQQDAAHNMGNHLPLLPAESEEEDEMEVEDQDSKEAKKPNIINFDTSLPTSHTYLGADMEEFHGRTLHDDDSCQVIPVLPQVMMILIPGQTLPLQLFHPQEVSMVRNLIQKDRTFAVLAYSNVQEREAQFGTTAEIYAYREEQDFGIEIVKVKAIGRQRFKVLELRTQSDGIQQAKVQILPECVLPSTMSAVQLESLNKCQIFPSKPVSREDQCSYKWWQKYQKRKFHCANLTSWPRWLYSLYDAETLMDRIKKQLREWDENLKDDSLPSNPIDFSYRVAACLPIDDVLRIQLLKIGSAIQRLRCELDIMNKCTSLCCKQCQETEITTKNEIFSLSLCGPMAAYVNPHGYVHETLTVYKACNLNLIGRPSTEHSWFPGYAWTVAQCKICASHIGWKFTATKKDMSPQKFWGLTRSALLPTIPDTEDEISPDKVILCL

[2] = target: T1, Protein cereblon/Tyrosine-protein kinase Lck; assay: PROTAC activity at HiBit-tagged LCK/CRBN in human KOPT-K1 cells assessed as induction of LCK degradation incubated for 6 hrs by Nano-Glo HiBiT assay relative to control; format: cell-based
Target sequence in this assay (P06239 2-509 limits assumed): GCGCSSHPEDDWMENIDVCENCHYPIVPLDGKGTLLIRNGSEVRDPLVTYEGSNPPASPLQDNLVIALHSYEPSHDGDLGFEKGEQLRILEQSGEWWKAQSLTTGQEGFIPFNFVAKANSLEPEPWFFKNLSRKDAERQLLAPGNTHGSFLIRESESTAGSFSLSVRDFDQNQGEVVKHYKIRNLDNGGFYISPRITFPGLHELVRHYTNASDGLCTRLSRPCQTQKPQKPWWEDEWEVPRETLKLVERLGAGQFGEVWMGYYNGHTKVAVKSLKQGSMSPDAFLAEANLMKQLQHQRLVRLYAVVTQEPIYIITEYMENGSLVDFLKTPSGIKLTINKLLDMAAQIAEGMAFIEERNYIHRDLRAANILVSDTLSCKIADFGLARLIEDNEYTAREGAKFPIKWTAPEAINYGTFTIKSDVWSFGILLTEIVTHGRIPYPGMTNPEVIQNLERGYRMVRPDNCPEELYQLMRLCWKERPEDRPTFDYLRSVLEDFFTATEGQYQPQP
Target sequence in this assay (Q96SW2 whole entry partner): as the sequence (Q96SW2 whole entry) above

[3] = Metabolic stability in mouse liver microsomes assessed as half life in presence of NADPH by UPLC-MS/MS analysis; format: ADME, Microsome
[4] = Drug concentration in CD-1 mouse plasma at 30 mg/kg, po measured after 4 hrs by UPLC-MS/MS analysis; format: ADME, organism-based
[5] = Stability in CD-1 mouse plasma assessed as half life; format: ADME, cell-free
[6] = Apparent permeability of compound across apical to basolateral side in human Caco-2 cells; format: ADME, cell-based
[7] = Apparent permeability of compound across basolateral to apical side in human Caco-2 cells; format: ADME, cell-based
[8] = Efflux ratio of apparent permeability across basolateral to apical over apical to basolateral in human Caco-2 cells; format: ADME, cell-based
[9] = Tmax in CD-1 mouse at 30 mg/kg, po measured up to 24 hrs; format: ADME, organism-based; conditions: in vivo
[10] = AUClast in CD-1 mouse at 3 mg/kg, iv measured up to 24 hrs; format: ADME, organism-based; conditions: in vivo
[11] = AUClast in CD-1 mouse at 30 mg/kg, po measured up to 24 hrs; format: ADME, organism-based; conditions: in vivo
[12] = Half life in CD-1 mouse at 3 mg/kg, iv measured up to 24 hrs; format: ADME, organism-based; conditions: in vivo
[13] = Half life in CD-1 mouse at 30 mg/kg, po measured up to 24 hrs; format: ADME, organism-based; conditions: in vivo
[14] = Clearance in CD-1 mouse at 3 mg/kg, iv measured up to 24 hrs; format: ADME, organism-based; conditions: in vivo
[15] = Clearance in CD-1 mouse at 30 mg/kg, po measured up to 24 hrs; format: ADME, organism-based; conditions: in vivo
[16] = Volume of distribution at steady state in CD-1 mouse at 3 mg/kg, iv measured up to 24 hrs; format: ADME, organism-based; conditions: in vivo, read-out: Vdss
[17] = Volume of distribution at steady state in CD-1 mouse at 30 mg/kg, po measured up to 24 hrs; format: ADME, organism-based; conditions: in vivo
[18] = Oral bioavailability in CD-1 mouse at 30 mg/kg measured up to 24 hrs; format: ADME, organism-based; conditions: in vivo
[19] = Cmax in CD-1 mouse at 3 mg/kg, iv measured up to 24 hrs; format: ADME, organism-based; conditions: in vivo
[20] = Cmax in CD-1 mouse at 30 mg/kg, po measured up to 24 hrs; format: ADME, organism-based; conditions: in vivo
KOPTK1 [21] = assay: Antiproliferative activity against human KOPT-K1 cells assessed as effect on cell viability measured for 72 hrs by celltiter glo assay; format: functional; conditions: read-out: LC50 (the source's name)
KOPTK1 [22] = assay: Antiproliferative activity against human KOPT-K1 cells assessed as inhibition of cell growth at 100 nM measured for 18 hrs by celltiter glo assay; format: functional, cell-based
KOPTK1 [23] = assay: Antiproliferative activity against human KOPT-K1 cells assessed as inhibition of cell growth at 100 nM measured for 280 hrs by celltiter glo assay; format: functional, cell-based
[24] = target: T1, Protein cereblon/Tyrosine-protein kinase Lck; assay: PROTAC activity at HiBit-tagged LCK/CRBN in human KOPT-K1 cells assessed as induction of LCK degradation at 0.1 to 1000 nM incubated for 6 hrs by Western blot analysis relative to control; format: cell-based; conditions: dose 0.1-1000 nM
Target sequence in this assay (P06239 2-509 limits assumed): as the sequence (P06239 2-509 limits assumed) above
Target sequence in this assay (Q96SW2 whole entry partner): as the sequence (Q96SW2 whole entry) above

[25] = target: T1, Protein cereblon/Tyrosine-protein kinase Lck; assay: PROTAC activity at HiBit-tagged LCK/CRBN in human KOPT-K1 cells assessed as induction of LCK degradation incubated for 6 hrs by Western blot analysis; format: cell-based
Target sequence in this assay (P06239 whole entry): as the sequence (P06239 whole entry) above
Target sequence in this assay (Q96SW2 whole entry): as the sequence (Q96SW2 whole entry) above

[26] = target: T1, Protein cereblon/Tyrosine-protein kinase Lck; assay: PROTAC activity at HiBit-tagged LCK/CRBN in human KOPT-K1 cells assessed as reduction in LCK level at 0.1 to 1000 nM incubated for 6 hrs immunoblotting analysis; format: cell-based; conditions: dose 0.1-1000 nM
Target sequence in this assay (P06239 2-509 limits assumed): as the sequence (P06239 2-509 limits assumed) above
Target sequence in this assay (Q96SW2 whole entry partner): as the sequence (Q96SW2 whole entry) above

KOPTK1 [27] = assay: Downregulation of CSK in human KOPT-K1 cells measured for 6 hrs by tandem mass tag proteomic assay; format: functional, cell-based
KOPTK1 [28] = assay: Downregulation of CISH in human KOPT-K1 cells measured for 6 hrs by tandem mass tag proteomic assay; format: functional, cell-based
KOPTK1 [29] = assay: Downregulation of EPHB1 in human KOPT-K1 cells measured for 6 hrs by tandem mass tag proteomic assay; format: functional, cell-based
KOPTK1 [30] = assay: Downregulation of GAK in human KOPT-K1 cells measured for 6 hrs by tandem mass tag proteomic assay; format: functional, cell-based
KOPTK1 [31] = assay: Downregulation of SIK2 in human KOPT-K1 cells measured for 6 hrs by tandem mass tag proteomic assay; format: functional, cell-based
KOPTK1 [32] = assay: Downregulation of YES1 in human KOPT-K1 cells measured for 6 hrs by tandem mass tag proteomic assay; format: functional, cell-based
KOPTK1 [33] = assay: Downregulation of GSPT1 in human KOPT-K1 cells measured for 6 hrs by tandem mass tag proteomic assay; format: functional, cell-based
KOPTK1 [34] = assay: Downregulation of CK1alpha in human KOPT-K1 cells measured for 6 hrs by tandem mass tag proteomic assay; format: functional, cell-based
KOPTK1 [35] = assay: Downregulation of IKZF1 in human KOPT-K1 cells measured for 6 hrs by tandem mass tag proteomic assay; format: functional, cell-based
KOPTK1 [36] = assay: Downregulation of IKZF3 in human KOPT-K1 cells measured for 6 hrs by tandem mass tag proteomic assay; format: functional, cell-based
Mus musculus [37] = assay: In-vivo PROTAC activity at LCK/CRBN in NOD Cg-Prkdc scid Il2rg tmIWjl (NSG) mouse model assessed as reduction in LCK level in Bone marrow at 30 mg/kg, po measured for 6 hrs by Western blot analysis; format: functional; set-up: scale not given: the % may be the effect or the level left
Mus musculus [38] = assay: In-vivo PROTAC activity at LCK/CRBN in NOD Cg-Prkdc scid Il2rg tmIWjl (NSG) mouse model assessed as reduction in LCK level in Bone marrow at 30 mg/kg, po measured for 24 hrs by Western blot analysis; format: functional; set-up: scale not given: the % may be the effect or the level left

For `Cc1nc(Nc2ncc(C(=O)Nc3c(C)cccc3Cl)s2)cc(N2CCC(CN3CCN(c4ccc(C5CCC(=O)NC5=O)cc4)CC3)CC2)n1` (stereo not drawn), the DC50 [1] was 17.5 nM, the Emax [2] was 77% and the half-life [3] was 2 h. The concentration at 4 h [4] was 3290 ng/mL, the half-life [5] was 45.2 h and the Papp A→B [6] was 0.302 ×10⁻⁶ cm/s. The Papp B→A [7] was 1.13 ×10⁻⁶ cm/s, the efflux ratio [8] was 3.75 and the Tmax [9] was 1 h. It also gave an AUC(0-t) at 24 h [10] of 3560 ng·h/mL, an AUC(0-t) at 24 h [11] of 20700 ng·h/mL and a half-life [12] of 3.51 h. The half-life [13] was 3.05 h, the clearance [14] was 14 mL/min/kg and the CL/F [15] was 24 mL/min/kg. For the same compound, the Vd [16] was 3.51 L/kg, the Vdss [17] was 6.34 L/kg and the bioavailability [18] was 58%. For the same compound, the Cmax [19] was 1450 ng/mL, the Cmax [20] was 2240 ng/mL and the CC50 (KOPTK1 [21]) was 20.1 nM. The Activity (KOPTK1 [22]) was “Active”, the Activity (KOPTK1 [23]) was “Active” and the Emax [24] was 98%. The DC50 [25] was 1.21 nM, the Activity [26] was “Active” and the Activity (KOPTK1 [27]) was “Active”. The Activity (KOPTK1 [28]) was “Active”, the Activity (KOPTK1 [29]) was “Active” and the Activity (KOPTK1 [30]) was “inactive”. For the same compound, the Activity (KOPTK1 [31]) was “inactive”, the Activity (KOPTK1 [32]) was “inactive” and the Activity (KOPTK1 [33]) was “inactive”. The Activity (KOPTK1 [34]) was “inactive”, the Activity (KOPTK1 [35]) was “inactive” and the Activity (KOPTK1 [36]) was “inactive”. It also gave an Activity (Mus musculus [37]) of 10% and an Activity (Mus musculus [38]) of 5%.
